Source: patent EP2711006A1, “Product Comprising a Nicotine-Containing Material and an Anti-Cancer Agent” (Rigas, Basil, priority 2012, dated 2014)
Read-outs that look alike come from different tables or passages of the source.

Experiments:
[1] = test system: GFP-A549 human lung cancer cells
Description: Experimental animals were held in nose-only air-tight tubes for designated time intervals.
Inhalation treatment was resumed 2 days post-surgery and continued for 6 weeks when mice were euthanized, and blood and lung tissues were collected. Luminosity of the GFP-A549 tumors was measured and the lungs were weighed.

[2] = for Total drug levels (PS V plus its metabolites): plasma
[3] = set-up: unit not given beside the values; settings: mouse, in vivo, inhaled or intranasal
lung cancer = settings: curcumin as a single agent, pre-clinical models of lung cancer; cited from earlier work

CCOP(=O)(OCC)OCCCCOC(=O)CC1=C(C)/C(=C/c2ccc([S+](C)[O-])cc2)c2ccc(F)cc21 (stereo not drawn) [PS V, phospho-sulindac]
tumor size by luminosity ([1]; at sacrifice, Mean±SEM, control = 19.85±4.33, p < 0.001): 5.05±2.97 | tumor size by lung weight ([1]; at sacrifice, Mean±SEM, control = 385.7±85.2 mg, p < 0.001): 204.4 ± 39.4 mg | death rate ([1]; end of the study, aerosol of 50 mg/mL PS V for 8 min, control group 40 %, p < 0.03): less than 10% | level of intact PS V in the lungs ([2]; inhalational, 6.5 mg/kg body weight): > 20 nmol/g | level of intact PS V in the lungs ([2]; oral administration, 150 mg/kg body weight): < 2 nmol/g | Total drug levels (PS V plus its metabolites) ([2]; after inhalation treatment, 6.5 mg/kg): 17 µM | Total drug levels (PS V plus its metabolites) ([2]; after oral administration, 150 mg/kg): 348 µM

CC1=C(CC(=O)O)c2cc(F)ccc2/C1=C\c1ccc([S+](C)[O-])cc1 (stereo not drawn) [Sulindac, sulindac]
AUC [3]: 30.1

COc1cc(/C=C/C(=O)CC(=O)/C=C/c2ccc(O)c(OC)c2)ccc1O [curcumin]
efficacy (lung cancer): < 30%
